Where “and” joins values, the source holds several entries; their conditions need not be identical. Equal values may be shown once. Read-outs that look alike come from different tables or passages of the source.
Tests used:
[1] = tested on: Bacillus cereus; assay: Inhibition of bacterial growth, filter paper technique; type: cell-based; conditions: Table VIII, 10^-3 molar, Gram +, 26° C./48 hrs; for zone of inhibition at 1000 µM: Bacillus cereus, read-out: Area of Inhibition (diameter)
Method: (§1) Schleider and Schuell #740-E filter paper (12.7 mm diameter) was dipped in the dye solution, touched to the side of the beaker to removed excess dye, and placed in the center of the inoculated agar plates (prepared in (B) above). The plates were then incubated at 26° C. for […]. The plates were then examined to determine if bacterial growth had been affected by the dye-containing filter paper. With certain dyes bacterial growth was inhibited in a circular area around the filter paper. With other dyes no such area of inhibition was observed.
(§2) Cultures of various gram-negative and gram-positive bacteria were prepared in nutrient and Tryptic Soy Agar and plates were poured as described in Example 1. Methanolic solutions of cyanine dyes were prepared at 10^-3 molar and applied to the plates using the filter paper technique described in Example 1. Control plates were prepared in which the filter paper contained methanol or a 0.2 molar aqueous solution of phenol. The plates were then incubated at 26° C. or 37° C. for forty-eight hours.

[2] = tested on: Escherichia coli, Strain B; assay: as above; type: cell-based; conditions: Table VIII; 10^-3 molar; Gram -; 37° C./48 hrs
Method: as §1, §2

[3] = tested on: Micrococcus flavus; assay: as above; type: cell-based; conditions: Table VIII, 10^-3 molar, Gram +, 26° C./48 hrs; for zone of inhibition at 1000 µM: Micrococcus flavus, read-out: Area of Inhibition (diameter)
Method: as §1, §2

[4] = tested on: Bacillus subtilis; assay: as above; type: cell-based; conditions: Table VIII, 10^-3 molar, Gram +, 26° C./48 hrs, read-out: Area of Inhibition (diameter)
Method: as §1, §2

[5] = tested on: Proteus vulgaris; assay: as above; type: cell-based; conditions: Table VIII; 10^-3 molar; Gram -; 37° C./48 hrs
Method: as §1, §2

[6] = tested on: Micrococus luteus; assay: as above; type: cell-based; conditions: Table VIII; 10^-3 molar; Gram +; 26° C./48 hrs; read-out: Area of Inhibition (diameter)
Method: as §1, §2

[7] = tested on: Alcaligenes faecalis; assay: as above; type: cell-based; conditions: Table VIII; 10^-3 molar; Gram -; 37° C./48 hrs
Method: as §1, §2

[8] = tested on: Bacillus megaterium; assay: as above; type: cell-based; conditions: Priestia megaterium; Table VIII; 10^-3 molar; Gram +; Tryptic Soy; 37° C./48 hrs; read-out: Area of Inhibition (diameter)
Method: as §1, §2

[9] = tested on: Enterobacter aerogenes; assay: as above; type: cell-based; conditions: Table VIII; 10^-3 molar; Gram -; 37° C./48 hrs
Method: as §1, §2

[10] = tested on: Bacillus pumilus strain K-1; assay: Inhibition of bacterial growth, filter paper on inoculated agar plates; type: cell-based
Method: Nutrient broth was prepared by mixing 8 grams of BACTO dehydrated nutrient broth per liter of distilled water. […] Samples of the nutrient broth were then inoculated with Bacillus pumilus strain K-1 culture. […]
Nutrient agar was prepared by mixing 23 grams of BACTO nutrient agar per liter of distilled water. The nutrient agar was sterilized in the same way as the nutrient broth. After it has cooled to about 45° C. 250 ml of the nutrient agar solution was aeseptically inoculated with 5 ml of the Bacillus pumilus, K-1 culture prepared in (A), above. Plates of the inoculated nutrient agar were then poured and allowed to harden.
[…] To minimize possible photocatalyzed reactions of the dyes, all preparations were performed under yellow lights and all incubations were performed in the dark.
Schleider and Schuell #740-E filter paper (12.7 mm diameter) was dipped in the dye solution, touched to the side of the beaker to removed excess dye, and placed in the center of the inoculated agar plates (prepared in (B) above). […] The plates were then examined to determine if bacterial growth had been affected by the dye-containing filter paper. […]
Control plates were prepared in which the filter paper contained methanol or a 0.2 molar aqueous solution of phenol. […]

[11] = tested on: Bacillus pumilus (K-1)
Method: This can be accomplished by contacting a given concentration of the dye with the cells, removing the cells from the dye solution and then comparing the optical density (at λmax) of the remaining dye solution with a control containing the original concentration of the dye. The percentage decrease in optical density indicates the percentage of dye which has been bound to the cells.
The culture was collected by centrifugation at 5,000×g. for 10 minutes, and the resultant pellet was washed several times in cold 0.05 M potassium phosphate buffer, pH 7.0. The pellet was resuspended in the buffer solution to a final optical density of 1.0 at 620 nm as measured with a Bausch and Lomb Spectronic 20.
One-tenth ml of dye solution (1 mg/ml in methanol) was added to a tube containing 5 ml of cell suspension described above and a control tube containing 0.05 M potassium phosphate buffer, pH 7.0. All tubes were well agitated using a Vari-Whirl Mixer (Will Scientific Co.) and then centrifuged at 10,000×g. for 10 minutes.
The percent binding of dye to the cells for each dye, was determined by comparison of the density at λmax of the control supernatant sample with the density at λmax of the supernatant of the cell sample.

[12] = not told
Method: If a published reduction potential is not available, suitable techniques for measuring reduction potential are available and can be used. […] This technique involves measurement at 20° C., of an approximately 10^-4 molar solution of the dye in an electrolyte, such as methanol which is 0.05 molar in lithium chloride, using a dropping mercury electrode. The potential values are reported by reference to a silver-silver chloride electrode in a saturated solution of potassium chloride at 20° C.

[13] = tested on: Sea Urchin Eggs; assay: Inhibition of cell division in fertilized sea urchin eggs; type: cell-based; conditions: arbitrary scale 0 to 5, 5 most active; dye 10^-5 to 10^-6 molar, 60 minutes after fertilization
Method: To suspensions in filtered sea water of fertilized sea urchin eggs there was added, three minutes after fertilization, methanolic solutions of the dyes in an amount sufficient to yield a final concentration of dye of between 10^-5 and 10^-6 molar. The final concentration of methanol was, at a maximum 1×10^-4 molar. The eggs were visually observed at 60 minutes after fertilization to determine if cell division and the formation of mitotic apparatus had been inhibited. A rating was assigned based on the concentration of dye required to inhibit cell division and synthesis of DNA.

[14] = tested on: the bacteria (various gram-negative and gram-positive); assay: Binding of dyes to the bacteria of Example 9; conditions: determined as in Example 8
Method: In addition, binding of dyes 7, 17 and 24 to the bacteria was determined as in Example 8.

[15] = Bacillus pumilus, K1, 48 h, Table VIII, 10^-3 molar, Nutrient, 37° C./48 hrs, read-out: Area of Inhibition (diameter)
[16] = Bacillus pumilus, K1, Table IX, 10^-3 M, read-out: Diameter of Inhibition
[17] = Bacillus pumilus, K1, 72 h, Tables V and VI, 10^-3 molar, three days, read-out: Diameter of Inhibition
[18] = Bacillus pumilus, K1, Table II, 10^-4 molar, 26° C., forty-eight hours, read-out: Diameter of Inhibition
[19] = Bacillus pumilus, K1, Table IX, 10^-4 M, read-out: Diameter of Inhibition

CCN1C(=Cc2oc3ccccc3[n+]2CC)Oc2ccccc21 [Dye 1]
Area of Inhibition (diameter) [1]: No | Area of Inhibition (diameter) [2]: No | Area of Inhibition (diameter) [3]: No | zone of inhibition at 1000 µM [4]: 13 mm | Area of Inhibition (diameter) [5]: No | zone of inhibition at 1000 µM [6]: 22 mm | Area of Inhibition (diameter) [7]: No | zone of inhibition at 1000 µM [8]: 17 mm | Area of Inhibition (diameter) [9]: No | Activity Rating [10]: 39 | zone of inhibition at 1000 µM [10, 15]: 18 mm | zone of inhibition at 1000 µM [10, 16]: 18 mm | % Bound [11]: 33.6% | ER [12]: -1.69 | reduction potential (ER) [12]: -1.69 volts

CCN1C(=CC=Cc2oc3ccccc3[n+]2CC)Oc2ccccc21 [Dye 7]
Sea Urchin Eggs Activity [13]: +4 | binding to the bacteria (in words) [14]: found to bind | zone of inhibition at 1000 µM [1]: 14 mm | Area of Inhibition (diameter) [2]: No | zone of inhibition at 1000 µM [3]: 19 mm | zone of inhibition at 1000 µM [4]: 18 mm | Area of Inhibition (diameter) [5]: No | zone of inhibition at 1000 µM [6]: 16 mm | Area of Inhibition (diameter) [7]: No | zone of inhibition at 1000 µM [8]: 21 mm | Area of Inhibition (diameter) [9]: No | Activity Rating [10]: 100 | zone of inhibition at 1000 µM [10, 15]: 24 mm | zone of inhibition at 1000 µM [10, 17]: 34 mm | zone of inhibition at 100 µM ([10]; Bacillus pumilus, K1, Table I, 10^-4 molar, 26° C., fifty hours, dark, read-out: Diameter of Inhibition): 22.5 mm | zone of inhibition at 100 µM [10, 18]: 25.5 mm | zone of inhibition at 100 µM ([10]; Bacillus pumilus, K1, Table III, 1.0 × 10^-4 M, read-out: Diameter of Inhibition): 26 mm | zone of inhibition at 200 µM ([10]; Bacillus pumilus, K1, Table III, 2.0 × 10^-4 M, read-out: Diameter of Inhibition): 29 mm | zone of inhibition at 25 µM ([10]; Bacillus pumilus, K1, Table III, 2.5 × 10^-5 M, read-out: Diameter of Inhibition): 14.5 mm | zone of inhibition at 50 µM ([10]; Bacillus pumilus, K1, Table III, 5.0 × 10^-5 M, read-out: Diameter of Inhibition): 20 mm | zone of inhibition at 1000 µM [10, 16]: 34 mm | zone of inhibition at 100 µM [10, 19]: 25.5 mm | degree of inhibition compared with phenol (in words) ([10]; dye 7 at 1×10^-4 molar): same degree of inhibition as phenol at 2.13×10^-1 molar | times more active as an inhibitor than phenol ([10]; dye 7 at 1×10^-4 molar vs phenol at 2.13×10^-1 molar): ~2000 times | % Bound [11]: 31.7% | ER [12]: -1.26 | reduction potential (ER) [12]: -1.26 volts

CCN1C(=CC=Cc2sc3ccccc3[n+]2CC)Sc2ccccc21 [Dye 17]
Sea Urchin Eggs Activity [13]: +4 | binding to the bacteria (in words) [14]: found to bind | zone of inhibition at 1000 µM [1]: 13 mm | Area of Inhibition (diameter) [2]: No | zone of inhibition at 1000 µM [3]: 15 mm | zone of inhibition at 1000 µM [4]: 15 mm | Area of Inhibition (diameter) [5]: No | zone of inhibition at 1000 µM [6]: 14 mm | Area of Inhibition (diameter) [7]: No | zone of inhibition at 1000 µM [8]: 14 mm | Area of Inhibition (diameter) [9]: No | Activity Rating [10]: 18 and 31 | effect upon diameter of inhibition as a result of changing the anion ([10]; 10^-3 molar, three days): no effect upon diameter of inhibition | zone of inhibition at 1000 µM [10, 15]: 17 mm | zone of inhibition at 1000 µM [10, 17]: 19 mm | zone of inhibition at 100 µM [10, 18]: 16.5 mm | zone of inhibition at 1000 µM [10, 16]: 19 mm | zone of inhibition at 100 µM [10, 19]: 16.5 mm | % Bound [11]: 73.1% | ER [12]: -1.00 | reduction potential (ER) [12]: -1.00 volts

Reference: patent US4232121A, “Process for selecting methine dyes which inhibit cell growth” (Eastman Kodak Company, priority 1978, dated 1980)
